This note sets out measurements from PMC9202104 (BMC Biology, 2022).

Like-named read-outs stand apart in the source and are kept apart here.

For data set [1], the system named is ZIKV human strain PAN2016 (2016/Panama). Kind of data set: Plaque assay, inhibition of ZIKV infection (strain PAN2016). How it is done: (§1) After removal of the unbound compounds by centrifugation (after addition of 3% PEG-6000), ZIKV was incubated with Vero E6 cells in 24-well plates at 37°C for 1 h. The cells were then washed with PBS, overlaid with DMEM containing 1% carboxymethyl cellulose and 2% FBS, and cultured at 37°C for 4–5 days, followed by being stained with 0.5% crystal violet. […] Plaques in each well were calculated, and IC50 of compounds for each compound was calculated using the CalcuSyn computer program.

Data set [2] has as its system ZIKV mosquito strain MEX 2-81. Kind of data set: Plaque assay, inhibition of ZIKV infection (strain MEX 2-81). Type of data set: cell-based. The conditions noted are these: Zika virus, Vero C1008, read-out: IC50 MEX 2-81. How it is done:
as §1

In data set [3] the test system is ZIKV rhesus macaque strain MR 766. Kind of data set: Plaque assay, inhibition of ZIKV infection (strain MR 766). Type of data set: cell-based. Conditions: Zika virus, Vero C1008, read-out: IC50 MR 766. How it is done: as §1
In data set [4] the test system is ZIKV human strain FLR. As to the kind of experiment: Plaque assay, inhibition of ZIKV infection (strain FLR). It is filed as cell-based. Conditions: Zika virus, Vero C1008, read-out: IC50 FLR. On the procedure:
as §1

Data set [5] deals with ZIKV human strain R103451. Kind of data set: Plaque assay, inhibition of ZIKV infection (strain R103451). The conditions noted are these: Zika virus, Vero C1008, read-out: IC50 R103451. It is filed as cell-based. On the procedure: as §1
Data set [6] deals with ZIKV human strain PRVABC59. As to the kind of experiment: Plaque assay, inhibition of ZIKV infection (strain PRVABC59). It is filed as cell-based. The conditions noted are these: Zika virus, Vero C1008, read-out: IC50 PRVABC59. How it is done: as §1
For data set [7], the system named is ZIKV human strain PLCal_ZV. As to the kind of experiment: Plaque assay, inhibition of ZIKV infection (strain PLCal_ZV). It is filed as cell-based. The conditions noted are these: Zika virus, Vero C1008, read-out: IC50 PLCal_ZV. How it is done:
as §1

The test system of data set [8] is ZIKV human strain IbH 30656. As to the kind of experiment: Plaque assay, inhibition of ZIKV infection (strain IbH 30656). It is filed as cell-based. The conditions noted are these: Zika virus, Vero C1008, read-out: IC50 IbH 30656. On the procedure:
as §1

Data set [9] has as its system 8 human ZIKV strains (PAN2016, R116265, PAN2015, FLR, R103451, PRVABC59, PLCal_ZV, IbH 30656). Kind of data set: microbe, parasite or virus in culture. Type of data set: cell-based. The conditions noted are these: Zika virus, read-out: Average IC50 (human strains). On the procedure: as §1
A short description of data set [10]: Cytotoxicity, Cell Counting Kit-8, Vero E6 cells. Type of data set: cell-based. The conditions noted are these: African green monkey, CC50 Vero E6. On the procedure: (§2) Briefly, compounds at 2-fold serial dilutions were added to the respective cells (2.0×10^4/well) pre-seeded in 96-well plates. The cells were cultured at 37°C in the presence of 5% CO2 for 3 days, […] incubated with CCK8 solution, followed by measurement of absorbance at 450 nm (A450 value), using a microplate reader (Infinite F200PRO, Tecan, Morrisville, NC, USA). CC50 of compounds was calculated using the CalcuSyn program.

Data set [11] relates to Vero E6 cells. Kind of data set: Cytotoxicity, Cell Counting Kit-8, Vero E6 cells. Conditions: African green monkey, 3 days. It is filed as cell-based. On the procedure:
as §2
Background: Tetrazolium dyes change colour on reduction, which living cells bring about.

Data set [12] is described as follows: in vitro. Type of data set: cell-based. Conditions: rhesus monkey. On the procedure: as §2
Data set [13] relates to DENV-1-V1792. Kind of data set: Plaque assay, inhibition of DENV-1 infection in LLC-MK2 cells. Type of data set: cell-based. The conditions noted are these: Dengue virus, DENV1.
For data set [14], the system named is DENV-2-V594. Kind of data set: Plaque assay, inhibition of DENV-2 infection in LLC-MK2 cells. Type of data set: cell-based. Conditions: Dengue virus, DENV2.
Data set [15] has as its system DENV-3-V1043. As to the kind of experiment: Plaque assay, inhibition of DENV-3 infection in LLC-MK2 cells. Type of data set: cell-based. The conditions noted are these: Dengue virus, DENV3.
The subject of data set [16] is DENV-4-PR-06-65-740. Kind of data set: Plaque assay, inhibition of DENV-4 infection in LLC-MK2 cells. It is filed as cell-based. The conditions noted are these: Dengue virus, DENV4.
The subject of data set [17] is ZIKV human strain R103451. As to the kind of experiment: Lethal ZIKV challenge in adult Ifnar1−/− mice, survival and weight. Conditions: ZIKV R103451 200 PFU. It is filed as in vivo. How it is done: (§3) Briefly, 7–8-week-old male mice were used, and two separate experiments were performed. […] These mice were i.p. infected with ZIKV (human strain R103451, 200 PFU/mouse) and observed daily for weight changes and survival until 21 dpi. […] Five days later, these mice were sacrificed, and their tissues, including the heart, testis, eye, kidney, and brain, were collected for detection of viral titers by plaque assay, or apoptosis by immunofluorescence staining. Mice losing 20% of initial weight with severe symptoms, including hind limb weakness and paralysis, or 25% of initial weight, were humanely euthanized with an overdose isoflurane in a Bell Jar, followed by cervical dislocation.

Data set [18] deals with ZIKV human strain PAN2016. Kind of data set: ZIKV challenge in adult Ifnar1−/− mice, tissue viral titers and immunofluorescence. Type of data set: in vivo. Conditions: 20 mg/kg i.p.; ZIKV PAN2016 200 PFU; 5 dpi; compared to DMSO-treated mice. How it is done: as §3
Plaque assay was used to detect viral titers in ZIKV-infected tissues. Briefly, tissues were homogenized with cold culture medium (DMEM + 2% FBS) and then centrifuged (2000 g at 4°C for 10 min). Supernatants were serially diluted to infect Vero E6 cells in 24-well plates. ZIKV titers in tissues were measured from ~40 mg of samples; thus, the detection limit was about 25 PFU/g of tissues.
Immunofluorescence staining was carried out to detect ZIKV and caspase-3 signals in ZIKV-infected mouse tissues. Briefly, tissues were fixed in 4% formaldehyde, embedded in paraffin, and sectioned. The tissue sections were deparaffinized, fixed, and permed using the FIX and PERM Cell Permeabilization Kit (Thermo Fisher Scientific, Waltham, MA, USA). After blocking with 5% BSA, the tissue slides were incubated at 37°C 2 h with ZIKV EDIII-specific human mAb (ZV-67, 1:100, Absolute Antibody, Boston, MA, USA), or rabbit anti-active caspase-3 antibody (1:100, Abcam). The slides were washed with PBS and incubated for 30 min with anti-human FITC antibody (1:100, for ZIKV), or anti-rabbit Alexa Fluor 647 antibody (1:100, for caspase-3). The slides were then counterstained for nuclei, using DAPI (300 nM, Thermo Fisher Scientific, Waltham, MA, USA) for 5 min, and mounted in VectaMount Permanent Mounting Medium (Vector Laboratories, CA, USA). The slides were analyzed using a confocal microscope (Zeiss LSM 880) and ZEN software, and fluorescent signals were quantified by ImageJ software.

Data set [19] deals with DENV-2 human strain V594. Kind of data set: DENV-2 challenge in Ifnar1−/− mice, flow cytometry titers. Type of data set: in vivo. Conditions: C6/36 cells, flow cytometry, 3 dpi, 20 mg/kg i.p., representative image. How it is done:
Three days after infection, sera and tissues, including the brain, kidney, and heart, were collected and assessed for DENV infection using a flow cytometry assay, as described below. Tissues were freshly homogenized with cold culture medium (EMEM + 2% FBS) and centrifuged at 4°C and 2000 g for 10 min. Serially diluted tissue supernatants and sera were added to C6/36 cells, as described below. DENV titers in tissues or sera were assessed from ~20 mg of tissue samples, or 25 μl of sera, and used for subsequent flow cytometry analysis.
Flow cytometry assay was carried out to analyze DENV-2 titers in the supernatants of homogenized tissues and sera from DENV-2-infected mice collected above. Briefly, homogenized tissue supernatants or sera were added to C6/36 cells (5×10^5 cells/well) pre-seeded in 24-well plates which the culture medium was removed, and the cells were incubated for 1 h (28°C, 5% CO2). After incubation, the cells were washed with PBS, incubated with EMEM containing 2% FBS, and then cultured for 3 days as described above. After further removal of medium, the cells were digested, washed with PBS, and resuspended in FIX/PERM solution (Tonbo Biosciences, San Diego, CA, USA), followed by incubation at 4°C for 1 h in the dark. The cells were then sequentially incubated with mouse anti-flavivirus mAb 4G2 (2 μg/ml) at 37°C for 1 h and FITC-labeled anti-mouse IgG (0.5 mg/ml, BioLegend, San Diego, CA, USA) at 37°C for 30 min, followed by analysis using a FACScan flow cytometer and Summit software. Viral titers (infectious units/ml or infectious units/g) were calculated using the formula ((% of infected cells)×(total number of cells)×(dilution factor)/(amount of inoculum added to cells)).
(In flow cytometry, cells or beads pass a laser one at a time.)

As to `Cc1cc2c(C(C)C)c(O)c(O)c(C=O)c2c(O)c1-c1c(C)cc2c(C(C)C)c(O)c(O)c(C=O)c2c1O` [Gossypol, reference compound], the IC50 (commonly the concentration at which inhibition is half-maximal) in [1] (Zika virus, Vero C1008, in Homo sapiens, read-out: IC50 against infection of ZIKV PAN2016, plaque assay, Vero E6 cells) amounted to 3.8 µM; in data set [1] (read-out: IC50 against infection of ZIKV PAN2016, plaque assay, Vero E6 cells), 3.78 ± 0.3 µM; in [2], 2900 nM; in [3], 4.1 µM; in data set [4], 700 nM; in data set [5] it was 3.1 µM. Moreover, the half-maximal inhibitory concentration (IC50) came to 4.6 µM in data set [6]; 2900 nM in data set [7]; 3.4 µM in [8]; 3.4 µM in data set [9]; 2060 ± 130 nM in data set [13]; 1910 ± 10 nM in data set [14]. Further, the IC50 turned out to be 3.42 ± 0.11 µM in [15] and 2830 ± 70 nM in data set [16]. Further, the CC50 (commonly the concentration giving 50% cytotoxicity) at 3 days in data set [10] was determined as 14.5 µM; in data set [12] it was 19.1 ± 1.09 µM. In data set [11], the CC50 stood at 14.49 ± 0.07 µM. Also, the “Mice protected from death (survival)” value in [17] (20 mg/kg i.p. 12 h before and 6, 24, 48 h post-infection, observed 21 days) is “no mice treated with gossypol survived at 6 dpi”. Also, the Weight loss entry in [17] (20 mg/kg i.p., ST087010 figure during 6–12 dpi) was “increased weight loss”. For the same compound, in data set [18], the “Viral titers in the heart, kidney, and brain” value was “significantly higher”. In addition, the “DENV-2 in brain, percentage of infected cells” value in data set [19] is reported as 3.6%. In addition, the “DENV-2 in heart, percentage of infected cells” value in data set [19] turned out to be 3.8%. In [19], the “DENV-2 in kidney, percentage of infected cells” value was determined as 4.1%. For the same compound, the “DENV-2 in sera, percentage of infected cells” value in data set [19] was found to be 50.9%.
